Data: US7456165B2, “HCV NS5B inhibitors” (Bristol-Myers Squibb Company, priority 2006, dated 2008)
Where two headings read alike, the source gives them in different places.

Legend:
HCV NS5B = target: T1, HCV NS5B (Hepatitis C virus genotype 1b, UniProt Q9WMX2); experiment: HCV NS5B RdRp enzyme assay (preincubation protocol); type: biochemical; conditions: HCV NS5B RdRp genotype 1b
T1 construct: The protein was expressed with an 18 amino acid C-terminal truncation to enhance the solubility; made in house; host or cells: E. coli BL21(DE3)
Summary of the method: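 Preincubation format uses C-terminally truncated (Δ18) NS5B 1b from E. coli at 14 nM, added to compound before polyA template (0.2 nM), 3H-UTP (0.29 μM) and oligo-dT12 primer precaptured on SPA beads (20 nM). Buffer was 20 mM Hepes pH 7.5, 2% DMSO, run 4 h at 30° C. IC50 came from seven concentrations.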

HCV replicon cells = experiment: HCV replicon FRET assay; type: cell-based
Summary of the method: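 Huh-7-derived HCV replicon cells (with or without Renilla luciferase reporter) incubated with titrated compound at 37° C. Lysed cells then read by NS3 cleavage of EDANS/DABCYL FRET peptide (20 μM, 340/490 nm, kinetic) or by Dual-Glo luciferase. EC50 is concentration giving 50% signal reduction after protease-inhibitor background subtraction; Alamar blue gives cytotoxicity.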

T1 sequence (Q9WMX2 2420-2992): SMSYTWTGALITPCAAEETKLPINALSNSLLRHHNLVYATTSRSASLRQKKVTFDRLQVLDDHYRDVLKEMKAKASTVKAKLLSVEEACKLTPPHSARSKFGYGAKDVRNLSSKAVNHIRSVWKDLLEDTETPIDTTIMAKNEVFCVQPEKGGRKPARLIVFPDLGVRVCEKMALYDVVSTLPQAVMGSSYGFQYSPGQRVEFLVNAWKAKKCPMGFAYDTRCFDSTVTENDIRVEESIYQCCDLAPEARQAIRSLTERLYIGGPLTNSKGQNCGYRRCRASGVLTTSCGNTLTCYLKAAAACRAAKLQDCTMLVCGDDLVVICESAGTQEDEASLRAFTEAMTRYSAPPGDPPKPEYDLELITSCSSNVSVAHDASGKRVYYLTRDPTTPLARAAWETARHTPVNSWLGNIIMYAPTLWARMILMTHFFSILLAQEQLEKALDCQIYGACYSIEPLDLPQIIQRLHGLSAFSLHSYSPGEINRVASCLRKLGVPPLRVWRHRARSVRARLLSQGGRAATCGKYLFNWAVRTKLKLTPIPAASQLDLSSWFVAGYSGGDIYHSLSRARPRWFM

SMILES | IC50 (HCV NS5B) [µM] | EC50 (HCV replicon cells; Hepatitis C virus) [µM] | EC50 (HCV replicon cells) [µM]
COc1ccc2c(c1)C=C(c1nnn(CC3CCOCC3)n1)Cn1c-2c(C2CCCCC2)c2ccc(C(=O)NS(=O)(=O)N(C)C)cc21 [Example 17, 13-cyclohexyl-N-[(dimethylamino)sulfonyl]-3-methoxy-6-[2-[(tetrahydro-2H-pyran-4-yl)methyl]-2H-tetrazol-5-yl]-7H-indolo[2,1-a][2]benzazepine-10-carboxamide] | 0.001 to 0.5 | 0.001 to 0.5 | 
COC(=O)c1ccc2c(C3CCCCC3)c3n(c2c1)CC(c1ncc(CCC(=O)O)o1)=Cc1cc(OC)ccc1-3 [Example 47, 3-(2-(13-Cyclohexyl-3-methoxy-10-(methoxycarbonyl)-7H-indolo[2,1-a][2]benzazepin-6-yl)-1,3-oxazol-5-yl)propanoic acid] | 0.001 to 0.5 | > 0.5 | 
Cn1nc(C2=Cc3ccccc3-c3c(C4CCCCC4)c4ccc(C(=O)O)cc4n3C2)nc1CC1CCOCC1 [Example 42, 13-cyclohexyl-6-[1-methyl-5-[(tetrahydro-2H-pyran-4-yl)methyl]-1H-1,2,4-triazol-3-yl]-7H-indolo[2,1-a][2]benzazepine-10-carboxylic acid] | > 0.5 | > 0.5 | 
COc1ccc2c(c1)CC(c1ncc(CCC(=O)N3CCOCC3)o1)Cn1c-2c(C2CCCCC2)c2ccc(C(=O)O)cc21 (single isomer, unassigned) [Example 52, 13-Cyclohexyl-3-methoxy-6-(5-(3-(4-morpholinyl)-3-oxopropyl)-1,3-oxazol-2-yl)-6,7-dihydro-5H-indolo[2,1-a][2]benzazepine-10-carboxylic acid] | 0.001 to 0.5 |  | 0.001 to 0.5
COC(=O)c1ccc2c(C3CCCCC3)c3n(c2c1)CC(c1nc(CS(C)(=O)=O)no1)=Cc1ccccc1-3 [Example 26, 13-cyclohexyl-6-[3-[(methylsulfonyl)methyl]-1,2,4-oxadiazol-5-yl-]7H-indolo[2,1-a][2]benzazepine-10-carboxylic acid, methyl ester] | > 0.5 | > 0.5 | 
COc1ccc2c(c1)CC(c1ncc(CCC(=O)N3CCOCC3)o1)Cn1c-2c(C2CCCCC2)c2ccc(C(=O)O)cc21 (single isomer, unassigned) [Example 51, 13-Cyclohexyl-3-methoxy-6-(5-(3-(4-morpholinyl)-3-oxopropyl)-1,3-oxazol-2-yl)-6,7-dihydro-5H-indolo[2,1-a][2]benzazepine-10-carboxylic acid] | 0.001 to 0.5 |  | > 0.5
